In patent US20260263429A1, “INHIBITORS OF CA 2+/CALMODULIN-DEPENDENT PROTEIN KINASE II (CAMKII) THAT DO NOT INHIBIT LONG-TERM POTENTIATION (LTP) INDUCTION AND THERAPEUTIC USES THEREOF” (The Regents of the University of Colorado, A Body Corporate, priority 2023, published 2026):

What was measured:
pT286 CaMKII = assay: CaMKII T286 phosphorylation in hippocampal cultures after chemical LTP stimulation; format: cell-based
Procedure: In this Example, other possibilities of AS283 action were tested. If AS283 blocks pT286 but not LTP because it also circumvents the need of pT286 for LTP, then AS283 should not only fail to block LTP in WT mice (as illustrated in FIGS. 3A-3B) but should also restore the capacity for LTP induction in T286A mutant mice. […] Specifically, in an exemplary method, the addition of AS283 (10 μM) enabled LTP in slices from the T286A mutant mice (FIGS. 3C-3D).
Immunoblot analysis. Protein concentration was determined using the Pierce BCA protein assay (Thermo-Fisher). Before undergoing SDS-PAGE, samples were boiled in Laemmli sample buffer for 5 min at 95° C. Proteins were separated in a resolving phase polymerized from 10% acrylamide, then transferred to a polyvinylidene difluoride membrane at 24 V for 1-2 h at 4° C. […] Blots were developed using chemiluminescence (Super Signal West Femto, Thermo-Fisher) imaged using the Chemi-Imager 4400 system (Alpha-Innotech), or imaged directly by fluorescence (Cytiva CyDye 700 goat anti-mouse and CyDye 800 goat anti-rabbit secondary antibodies.) using an OdysseyFc imaging instrument. All immunoblots were analyzed by densitometry (ImageJ). […]

[1] = test system: CaMKIIα binding to GST-GluN2B-c
Procedure: In a series of exemplary methods, an in vitro kinase assay was used where purified CaMKIIα is incubated at 30° C. with GST-GluA1 alongside ATP. CaMKIIα normally phosphorylates S831 on the GluA1 subunit and this phosphorylation can be measured as a readout of CaMKIIα enzymatic activity (see e.g., FIG. 8B). […] In another exemplary method, binding of purified CaMKIIα to immobilized GST-GluN2B-c was induced by Ca^2+/CaM in the presence of a vehicle (none), 4 mM ADP or with […] AS105. […] At the same time, two exemplary methods were performed to observe ionomycin or chemical LTP (cLTP) induced co-localization of CaMKII and GluN2B either in HEK293 cells co-expressing GFP-CaMKII and mCherry-2BC or dissociated rat hippocampal cultures expressing GFP-CaMKII and mCh-PSD95 intrabody. HEK293 cells, incubating with vehicle or 10 μM AS105, were subjected to ionomycin. Hippocampal cultures, also incubating with either vehicle or 10 μM AS105, were treated with a chemical LTP (cLTP) stimulus (e.g., 100 μM glutamate, 10 μM glycine for 45 seconds). Confocal microscopy images were taken before and after each stimulus.
One possible mechanism by which AS283 could enhance GluN2B binding more than ATP is by suppressing CaMKII-mediated phosphorylation of GluN2B at S1303, as this phosphorylation within the CaMKII binding site on GluN2B reduces CaMKII binding.
Bound CaMKII was measured via immunoblot.

[2] = target: CaMKII F89G binding to GluN2B (Homo sapiens, UniProt Q9UQM7, F89G); assay: In vitro binding of CaMKII F89G to GluN2B; conditions: NM-PP1
Source text: This conclusion also predicts that the LTP stimulus-induced movement of CaMKII to excitatory synapses should be (i) impaired in the CaMKII F89G mutant; but (ii) normalized by pharmacogenetic rescue with NM-PP1. Indeed, both predictions were observed experimentally (FIGS. 4D-4E).
CaMKII binding to GluN2B in vitro. CaMKII/GluN2B binding assays were done as described. Briefly, GST-GluN2B-c-tail (GST-2BC) was immobilized on anti-GST-antibody-coated microtiter plates (Thermo Scientific), blocked for 30 min with 5% BSA, and then overlaid with […] CaMKII (subunit concentration) in PIPES-buffered saline (pH 7.2) containing: 2 mM Ca^2+, 1 μM CaM, 1 mM Mg^2+, 0.1% BSA, 0.1% Tween-20 for 20 min at room temperature. Addition of 1 mM ADP, 1 mM ATP, 10 μM AS283 (or AS105) or […] NM-PP1 was added accordingly (see figure legends). After extensive washes in buffer containing 1 mM EGTA, GST-2BC and bound CaMKII was eluted for 10 min in SDS-loading buffer at 95° C. Bound CaMKII was measured via immunoblot.

Sequence of CaMKII F89G binding to GluN2B (Q9UQM7 whole entry F89G): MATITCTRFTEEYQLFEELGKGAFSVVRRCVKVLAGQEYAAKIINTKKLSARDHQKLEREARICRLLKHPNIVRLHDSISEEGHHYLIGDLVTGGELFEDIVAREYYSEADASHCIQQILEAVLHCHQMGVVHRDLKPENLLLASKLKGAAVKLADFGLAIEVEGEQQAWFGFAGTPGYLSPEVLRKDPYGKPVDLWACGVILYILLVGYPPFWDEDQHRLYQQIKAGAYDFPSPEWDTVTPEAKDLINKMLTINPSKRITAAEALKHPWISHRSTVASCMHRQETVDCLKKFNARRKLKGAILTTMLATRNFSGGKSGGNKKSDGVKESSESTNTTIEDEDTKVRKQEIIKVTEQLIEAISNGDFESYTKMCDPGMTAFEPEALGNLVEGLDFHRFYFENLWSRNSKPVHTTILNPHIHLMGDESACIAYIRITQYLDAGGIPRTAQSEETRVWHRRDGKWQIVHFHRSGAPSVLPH
Sequence of CaMKII F89G binding to GluN2B (Q13224 836-1484 partner limits assumed): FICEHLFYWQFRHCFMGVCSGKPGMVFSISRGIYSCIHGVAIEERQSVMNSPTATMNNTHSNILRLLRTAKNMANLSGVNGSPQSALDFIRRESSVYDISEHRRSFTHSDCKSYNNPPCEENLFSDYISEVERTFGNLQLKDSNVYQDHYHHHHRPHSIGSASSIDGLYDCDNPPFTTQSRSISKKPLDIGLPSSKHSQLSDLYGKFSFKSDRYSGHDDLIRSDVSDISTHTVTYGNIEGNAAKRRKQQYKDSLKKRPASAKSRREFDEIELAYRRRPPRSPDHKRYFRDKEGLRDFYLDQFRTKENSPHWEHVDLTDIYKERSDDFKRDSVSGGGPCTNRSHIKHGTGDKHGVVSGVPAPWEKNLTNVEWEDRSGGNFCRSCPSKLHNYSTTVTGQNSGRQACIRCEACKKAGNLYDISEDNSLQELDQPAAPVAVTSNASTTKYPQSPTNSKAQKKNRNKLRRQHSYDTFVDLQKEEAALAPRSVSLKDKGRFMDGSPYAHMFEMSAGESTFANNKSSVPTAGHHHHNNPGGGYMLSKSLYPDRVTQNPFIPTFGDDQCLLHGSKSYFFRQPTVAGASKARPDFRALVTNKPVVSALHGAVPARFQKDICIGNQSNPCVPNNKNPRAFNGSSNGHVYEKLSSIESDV

SMILES	increase in pT286 levels after chemical LTP stimulation (pT286 CaMKII)	CaMKII binding to immobilized GluN2B compared to a control without nucleotide or inhibitor ([1]; 10 μM inhibitor, EGTA wash, immunoblot)	CaMKII binding to GluN2B in the presence of ADP ([1]; 1 mM ADP, AS283 10 μM)	Ca2+/CaM-induced CaMKII binding to immobilized WT GluN2B when ATP was substituted ([1]; AS283 versus 1 mM ATP)	enhancing effect on CaMKII binding to GluN2B S1303A mutant compared with ATP ([1]; phosphorylation-incompetent GluN2B S1303A)	binding of CaMKII F89G to GluN2B in vitro [2]
NCCNc1cccc(-c2ccnc3[nH]c4ccccc4c23)c1 [AS283]	specifically blocked increase in pT286 levels	increased CaMKII binding	did not inhibit CaMKII binding to GluN2B	significantly enhanced	indistinguishable	
CC(C)(C)n1nc(Cc2cccc3ccccc23)c2c(N)ncnc21 [NM-PP1]						enabled binding of CaMKII F89G to GluN2B also in vitro
